Test results taken from PMC8036603, “Small Molecule Inhibitors of White Spot Syndrome Virus: Promise in Shrimp Seedling Culture” (International Journal of Molecular Sciences, 2021).
In brackets after ≈: the same amount, converted by molar mass. Where two headings read alike, the source gives them in different places.

Key:
[1] = Acute toxicity assay in shrimp larvae; assay type: in vivo, Litopenaeus vannamei; details: Litopenaeus vannamei (shrimp) larvae, in vivo, other: immersion of larvae in test solutions, 28 °C, 95% CI in brackets; for LC50 at 24 h: 24 h exposure, read-out: LC50 (mg/L; 95% CI) 24 h; for LC50 at 48 h: 48 h exposure, read-out: LC50 (mg/L; 95% CI) 48 h; for LC50 at 72 h: 72 h exposure, read-out: LC50 (mg/L; 95% CI) 72 h
Method: Shrimp (L. vannamei) larvae (total length: 0.5 ± 0.04 cm, body weight: 4.2 ± 0.4 mg, mean ± SD) were provided by Zhejiang Mariculture Research Institute Qingjiang Station (Wenzhou, China). The larvae were maintained in a culture pond at 28 °C, fed four times a day with commercial feed pellets, and collected randomly for PCR testing to verify the WSSV-free status prior to the trial.
Acute toxicity of the coumarin derivatives was investigated by exposing larvae to a range of compound concentrations, from 0.1 mg/L to 100 mg/L of coumarin derivatives, where the dose setting was based on the data from preliminary tests in our laboratory. A DMSO-control (2%, v/v, the highest percentage of DMSO in treatments) served as the control. During the experiment, every 20 larvae were moved into six-well plates filled with 6 mL/per well freshly prepared test solutions for a 72-h incubation at 28 °C with a natural photoperiod. […] To avoid deterioration of water quality, dead shrimps were immediately removed at the point of observation. Three replicate experiments were performed.
Compound response curves were represented by a logistic sigmoidal function with a maximal effect level (Amax) and Hill coefficient representing the sigmoidal transition (Origin 8.1; http://www.originlab.com, accessed on 25 March 2021). Statistical analyses were performed using SPSS (version 18.0) statistical software (SPSS Inc., Chicago, IL, USA). The LC50 and EC50 values with 95% CIs were calculated using probit analysis. Virus titers were log10-transformed prior to statistical analyses. Unpaired Student’s t-tests were used to compare coumarin-treated samples and negative-control DMSO samples for determining significance and data are presented as mean values ± SD.

[2] = test system: white spot syndrome virus (WSSV); assay: Anti-WSSV activity in shrimp larvae, co-incubation, copy number of viral genome by RT-qPCR; assay type: in vivo, Litopenaeus vannamei
[3] = Solubility / precipitation in aquacultural water; assay type: physicochemical; details: test range 0.4~100 mg/L; aquacultural water; LC50 NONE
Method: Prior to evaluation of the anti-WSSV activity of coumarins, the safety doses for larvae needed to be determined. […] In contrast, the electron-withdrawing group was more toxic than the electron-donating group, with the LC50 of A5‒A8 being <5 mg/L at 72 h. […] Based on preliminary analysis of the structure-activity relationship (SAR) of similar spatial structures with different substituents of electron-donating and electron-withdrawing groups to coumarins A1, B1, and C1, we considered that […] of compounds; this provides a basis for further research.
All conventional reagents and solvents are purchased directly from commercial companies and no further purification is required. Organic solvents were purchased from Sinopharm chemical reagent Co., Ltd. and purified by distillation and moisture was excluded from the glass apparatus using CaCl2 drying tubes. Throughout this study, silica gel H (200–300 mesh; Qingdao Marine Chemical Factory, Qingdao, China) was used for the column chromatography. For thin layer chromatographic (TLC) plates, Silica gel (GF254) (Qingdao Marine Chemical Factory, Qingdao, China) were used for thin layer chromatographic (TLC) analysis, and all of the spots and bands were detected by UV irradiation (254, 365 nm). The intermediates and products were characterized by electrospray ionization mass spectrometry (TripleTOF5600þ; AB SCIEX Pte. Ltd., Boston, MA, USA), ^1H NMR and ^13C NMR (Bruker AM500 spectrometer; Bruker Corporation, Berne, Switzerland). The derivatives were dissolved in 100% dimethyl sulfoxide (DMSO; Beyotime Biotechnology, Haimen, China), stored at 4 °C prior to antiviral evaluation, and used within 6 months. For solubility, the stock solutions, at a concentration of 50 mg/mL, were sonicated for approximately 10 min to ensure that the derivatives were fully dissolved and mixed.

[4] = Whispovirus xiabaidian, 72 h, read-out: EC50 (mg/L; 95% CI), median effective concentration, WSSV-infected larvae, copy number of viral genome, 72 h; 95% CI in brackets
[5] = six-point dose-response, viral genome copy number in larvae
[6] = WSSV-infected larvae, copy number of viral genome, 72 h; 95% CI in brackets
[7] = Whispovirus xiabaidian, 72 h, WSSV-infected larvae, copy number of viral genome, 72 h; 95% CI in brackets; read-out: EC50 (mg/L; 95% CI), median effective concentration

SMILES | LC50 at 24 h [1] | LC50 at 48 h [1] | LC50 at 72 h [1] | other results
O=C1Nc2c(c(=O)oc3ccccc23)C(c2ccc([N+](=O)[O-])cc2)N1 (stereo not drawn) [A8, 4-(4-nitrophenyl)-3,4-dihydro-2H-chromeno[4,3-d]pyrimidine-2,5(1H)-dione] | 8.76 mg/L (≈ 26 µM) | 3.43 mg/L (≈ 10.2 µM) | 1.61 mg/L (≈ 4.79 µM) | –
N#CC1=C(N)Oc2c(c(=O)oc3ccccc23)C1c1ccc(Cl)cc1 (stereo not drawn) [C6] | – | 44.2 mg/L (≈ 126 µM) | 17.7 mg/L (≈ 50.4 µM) | EC50 [2, 4]: 8.54 mg/L; inhibitory efficiency on WSSV replication [2, 5]: exceeded 90%
N#CC1=C(N)Oc2c(c(=O)oc3ccccc23)C1c1ccccc1 (stereo not drawn) [C1] | 18.4 mg/L (≈ 58.2 µM) | 16.6 mg/L (≈ 52.6 µM) | 9.18 mg/L (≈ 29 µM) | EC50 [2, 4]: 2.9 mg/L
O=C1Nc2c(c(=O)oc3ccccc23)C(c2ccc(Br)cc2)N1 (stereo not drawn) [A7, 4-(4-bromophenyl)-3,4-dihydro-2H-chromeno[4,3-d]pyrimidine-2,5(1H)-dione] | 14.1 mg/L (≈ 38.1 µM) | 5.68 mg/L (≈ 15.3 µM) | 3.37 mg/L (≈ 9.07 µM) | –
COc1ccc(C2C(C#N)=C(N)Oc3c2c(=O)oc2ccccc32)cc1 (stereo not drawn) [C3] | 22.3 mg/L (≈ 64.5 µM) | 17.3 mg/L (≈ 50 µM) | 17.3 mg/L (≈ 50 µM) | EC50 [2, 4]: 14.8 mg/L
O=c1oc2ccccc2c2c1C(c1ccccc1)NC(=S)N2 (stereo not drawn) [B1, 4-phenyl-2-thioxo-1,2,3,4-tetrahydro-5H-chromeno[4,3-d]pyrimidin-5-one] | 15 mg/L (≈ 48.7 µM) | 12.8 mg/L (≈ 41.4 µM) | 10.5 mg/L (≈ 34.2 µM) | –
O=C1Nc2c(c(=O)oc3ccccc23)C(c2ccc(F)cc2)N1 (stereo not drawn) [A5, 4-(4-fluorophenyl)-3,4-dihydro-2H-chromeno[4,3-d]pyrimidine-2,5(1H)-dione] | 16.6 mg/L (≈ 53.6 µM) | 11.7 mg/L (≈ 37.9 µM) | 10.1 mg/L (≈ 32.4 µM) | EC50 (mg/L; 95% CI), median effective concentration [2, 6]: 08.416 (7.137~11.317) mg/L; EC50 [2, 7]: < 10 mg/L
N#Cc1ccc(C2NC(=S)Nc3c2c(=O)oc2ccccc32)cc1 (stereo not drawn) [B9, 4-(5-oxo-2-thioxo-1,3,4,5-tetrahydro-2H-chromeno[4,3-d]pyrimidin-4-yl)benzonitrile] | 37.1 mg/L (≈ 111 µM) | 31.5 mg/L (≈ 94.5 µM) | 9.63 mg/L (≈ 28.9 µM) | –
N#Cc1ccc(C2NC(=O)Nc3c2c(=O)oc2ccccc32)cc1 (stereo not drawn) [A9, 4-(2,5-dioxo-1,3,4,5-tetrahydro-2H-chromeno[4,3-d]pyrimidin-4-yl)benzonitrile] | 19.8 mg/L (≈ 62.5 µM) | 18 mg/L (≈ 56.6 µM) | 7.33 mg/L (≈ 23.1 µM) | –
O=C1Nc2c(c(=O)oc3ccccc23)C(c2ccc(Cl)cc2)N1 (stereo not drawn) [A6, 4-(4-chlorophenyl)-3,4-dihydro-2H-chromeno[4,3-d]pyrimidine-2,5(1H)-dione] | 2.58 mg/L (≈ 7.91 µM) | 2.48 mg/L (≈ 7.59 µM) | 2.35 mg/L (≈ 7.18 µM) | –
Cc1ccc(C2NC(=S)Nc3c2c(=O)oc2ccccc32)cc1 (stereo not drawn) [B2, 2-thioxo-4-(p-tolyl)-1,2,3,4-tetrahydro-5H-chromeno[4,3-d]pyrimidin-5-one] | 23.9 mg/L (≈ 74 µM) | 18.6 mg/L (≈ 57.6 µM) | 14.7 mg/L (≈ 45.5 µM) | –
Cc1ccc(C2NC(=O)Nc3c2c(=O)oc2ccccc32)cc1 (stereo not drawn) [A2, 4-(p-tolyl)-3,4-dihydro-2H-chromeno[4,3-d]pyrimidine-2,5(1H)-dione] | 15 mg/L (≈ 49 µM) | 14.3 mg/L (≈ 46.6 µM) | 10 mg/L (≈ 32.7 µM) | EC50 (mg/L; 95% CI), median effective concentration [2, 6]: 05.037 (4.076~7.593) mg/L; EC50 [2, 7]: < 10 mg/L
O=C1Nc2c(c(=O)oc3ccccc23)C(c2ccc(O)cc2)N1 (stereo not drawn) [A4, 4-(4-hydroxyphenyl)-3,4-dihydro-2H-chromeno[4,3-d]pyrimidine-2,5(1H)-dione] | – | – | – | lowest precipitation concentration [3]: NONE (50) mg/L; lowest precipitation concentration (bracketed value in LC50 48 h column) [3]: NONE (50) mg/L; lowest precipitation concentration (bracketed value in LC50 72 h column) [3]: NONE (50) mg/L; EC50 [2, 4]: 21.7 mg/L; inhibitory efficiency on WSSV replication [2, 5]: exceeded 90%
N#CC1=C(N)Oc2c(c(=O)oc3ccccc23)C1c1ccc(C#N)cc1 (stereo not drawn) [C9] | – | – | – | EC50 [2, 4]: 60.5 mg/L
O=c1oc2ccccc2c2c1C(c1ccc(Cl)cc1)NC(=S)N2 (stereo not drawn) [B6, 4-(4-chlorophenyl)-2-thioxo-1,2,3,4-tetrahydro-5H-chromeno[4,3-d]pyrimidin-5-one] | 8.85 mg/L (≈ 25.8 µM) | 6.63 mg/L (≈ 19.3 µM) | 4.5 mg/L (≈ 13.1 µM) | –
O=c1oc2ccccc2c2c1C(c1ccc(Br)cc1)NC(=S)N2 (stereo not drawn) [B7, 4-(4-bromophenyl)-2-thioxo-1,2,3,4-tetrahydro-5H-chromeno[4,3-d]pyrimidin-5-one] | 10 mg/L (≈ 25.9 µM) | 4.81 mg/L (≈ 12.4 µM) | 4.46 mg/L (≈ 11.5 µM) | –
O=c1oc2ccccc2c2c1C(c1ccc([N+](=O)[O-])cc1)NC(=S)N2 (stereo not drawn) [B8, 4-(4-nitrophenyl)-2-thioxo-1,2,3,4-tetrahydro-5H-chromeno[4,3-d]pyrimidin-5-one] | 13.6 mg/L (≈ 38.3 µM) | 7.48 mg/L (≈ 21.2 µM) | 3.06 mg/L (≈ 8.65 µM) | –
COc1ccc(C2NC(=S)Nc3c2c(=O)oc2ccccc32)cc1 (stereo not drawn) [B3, 4-(4-methoxyphenyl)-2-thioxo-1,2,3,4-tetrahydro-5H-chromeno[4,3-d]pyrimidin-5-one] | 66.2 mg/L (≈ 196 µM) | 64.1 mg/L (≈ 189 µM) | 41.7 mg/L (≈ 123 µM) | EC50 [2, 7]: 25.6 mg/L
N#CC1=C(N)Oc2c(c(=O)oc3ccccc23)C1c1ccc(O)cc1 (stereo not drawn) [C4] | – | – | – | EC50 [2, 7]: 61.2 mg/L; inhibitory efficiency on WSSV replication [2, 5]: exceeded 90%
O=C1Nc2c(c(=O)oc3ccccc23)C(c2ccccc2)N1 (stereo not drawn) [A1, 4-phenyl-3,4-dihydro-2H-chromeno[4,3-d]pyrimidine-2,5(1H)-dione] | 95.5 mg/L (≈ 327 µM) | 71.4 mg/L (≈ 244 µM) | 32.5 mg/L (≈ 111 µM) | EC50 [2, 7]: 21.5 mg/L
O=c1oc2ccccc2c2c1C(c1ccc(F)cc1)NC(=S)N2 (stereo not drawn) [B5, 4-(4-fluorophenyl)-2-thioxo-1,2,3,4-tetrahydro-5H-chromeno[4,3-d]pyrimidin-5-one] | 16.6 mg/L (≈ 50.7 µM) | 8.87 mg/L (≈ 27.2 µM) | 8.4 mg/L (≈ 25.7 µM) | –
COc1ccc(C2NC(=O)Nc3c2c(=O)oc2ccccc32)cc1 (stereo not drawn) [A3, 4-(4-methoxyphenyl)-3,4-dihydro-2H-chromeno[4,3-d]pyrimidine-2,5(1H)-dione] | 26.9 mg/L (≈ 83.4 µM) | 24.5 mg/L (≈ 76 µM) | 21.1 mg/L (≈ 65.5 µM) | EC50 [2, 7]: 14.9 mg/L
